This note sets out measurements from patent publication US8729269B2, “Substituted piperidino phenyloxazolidinones having antimicrobial activity with improved in vivo efficacy” (Wockhardt Limited, priority 2003, dated 2014).

For assay [1], the system named is Methicilin resistant Staphylococcus aureus 32 (MRSA 32). The assay is described as follows: Minimum Inhibitory Concentration (MIC) determination, agar dilution. The settings on record: Mueller Hinton agar, 24 hrs at 35° C. In kind it is cell-based. The protocol: (§1) Overnight grown cultures of Methicilin resistant Staphylococcus aureus 32 (MRSA 32), Methicilin resistant Staphylococcus epidermidis 118 (MRSE 118), Vancomycin resistant enterococci 303 (VRE 303) in Tryptic Soya broth were diluted in Mueller Hinton Broth to give optical density matching with MacFarland tube 0.5 standard. Cultures were further diluted 1:10 in Mueller Hinton broth. Using Denley's multipoint inoculator, 10^4 cells were deposited on Mueller Hinton agar (Difco) containing range of 2 fold dilutions of test compounds. These plates were incubated for 24 hrs at 35° C. and MIC results recorded. MIC is defined as minimum drug concentration that inhibits test organisms. For determining MIC of test compounds against Streptococcus pneumoniae 49619 (SPN 49619) and Streptococcus pyogenes 801 (SPY 801), Mueller Hinton agar containing 5% sheep blood was employed.
(In general: Agar dilution tests growth on a series of plates holding different concentrations.)

Assay [2] deals with Methicilin resistant Staphylococcus epidermidis 118 (MRSE 118). Described as above. In kind it is cell-based. The note with it: Mueller Hinton agar, 24 hrs at 35° C. The protocol: as §1
For assay [3], the system named is Vancomycin resistant enterococci 303 (VRE 303). The description is as above. In kind it is cell-based. The note with it: Enterococcus, Mueller Hinton agar, 24 hrs at 35° C. The protocol:
as §1

Assay [4] deals with Streptococcus pneumoniae 49619 (SPN 49619). Briefly: Minimum Inhibitory Concentration (MIC) determination, agar with 5% sheep blood. Type of assay: cell-based. The settings on record: Mueller Hinton agar containing 5% sheep blood. The protocol: as §1
The test system of assay [5] is Streptococcus pyogenes 801 (SPY 801). The description is as above. In kind it is cell-based. The settings on record: Mueller Hinton agar containing 5% sheep blood. As for the experimental part:
as §1

Assay [6] concerns methicillin resistant Staphylococcus aureus strain MRSA 32. Briefly: Murine Assay Procedure (in vivo efficacy, MRSA 32 infection). The settings on record: swiss mice infected intraperitoneally with MRSA 32, oral gavage 1 h after infection, repeat dose 3 hrs later, percentage survival on Day 7. As for the experimental part: Oxazolidinone new chemical entities (NCEs) were evaluated for their in vivo efficacy in a murine infection caused by multi-drug resistant, methicillin resistant Staphylococcus aureus strain, referred to as MRSA 32, a clinical isolate obtained from a hospitalized patient. The procedure used for the murine assay is as follows:
Four weeks old swiss mice of 18-22 gm body weight were infected with MRSA 32 strain suspended in 5% Hog gastric mucin. The infecting dose of bacteria was set at 1-2×10^8 CFU/animal. The infecting dose was administered in 0.5 ml volume injected into peritonial cavity of mice. The treatment with oxazolidinone NCEs was started one hour after infection by administering 100-200 μl of the suspensions of oxazolidinone compounds in 5% Tween 80 by oral gavage. A repeat dose was similarly administered 3 hrs later. Each oxazolidinone NCE was tested at 2-3 different dosages in the range of 2.5 mg/kg to 20 mg/kg. In each dose group 6 mice were included. As an infection control group 12 mice were infected with MRSA 32 strain without giving any treatment. For compounds affording protection of MRSA infected mice, ED50 dosages were calculated on the basis of percentage survival on Day 7 after infection.

≈ marks a conversion by molar mass, not a printed value.

As usually defined, the MIC is the lowest concentration that inhibits growth of the organism. As a reminder, the ED50 is the midpoint of the dose-response relation. A high value points to weaker potency. In the case of `CC(=O)NC[C@H]1CN(c2ccc(N3CCC(F)(CNC(C)=O)CC3)c(F)c2)C(=O)O1` [Example 6, (S)—N-{3-[4-(4-Fluoro-4-(N-acetylamino)-methylpiperidin-1-yl)-3-fluorophenyl]-2-oxo-oxazolidin-5-ylmethyl}-acetamide], the MIC in assay [1] was found to be 8 µg/mL (≈ 18.8 µM); in assay [2], 2 µg/mL (≈ 4.71 µM); in assay [3], 8 µg/mL (≈ 18.8 µM); in assay [4], 2 µg/mL (≈ 4.71 µM); in assay [5], 2 µg/mL (≈ 4.71 µM). Moreover, in assay [6], the 50% effect level (ED50) was put at a dose of 10 mg/kg.
Consider `CC(=O)NC[C@H]1CN(c2ccc(N3CCC(F)(CNS(C)(=O)=O)CC3)c(F)c2)C(=O)O1` [Example 7, (S)—N-{3-[4-(4-Fluoro-4-methanesulfonamidomethylpiperidin-1-yl)-3-fluorophenyl]-2-oxo-oxazolidin-5-ylmethyl}-acetamide], for which the MIC in assay [1] was 1 µg/mL (≈ 2.17 µM); in assay [2] it was 0.5 µg/mL (≈ 1.09 µM); in assay [3] it was 2 µg/mL (≈ 4.34 µM); in assay [4], 1 µg/mL (≈ 2.17 µM); in assay [5], 1 µg/mL (≈ 2.17 µM). The same molecule yielded an ED50 in assay [6] of 5 mg/kg.
Turning to `CC(=O)NC[C@H]1CN(c2ccc(N3CCC(F)(CO)CC3)c(F)c2)C(=O)O1` [Example 9, (S)—N-{3-[4-(4-Fluoro-4-hydroxymethylpiperidin-1-yl)-3-fluorophenyl]-2-oxo-oxazolidin-5-ylmethyl}-acetamide], the MIC in assay [1] was found to be 2 µg/mL (≈ 5.22 µM); in assay [2], 0.5 µg/mL (≈ 1.3 µM); in assay [3], 4 µg/mL (≈ 10.4 µM); in assay [4] it was 2 µg/mL (≈ 5.22 µM); in assay [5] it was 2 µg/mL (≈ 5.22 µM). Also, the 50% effect level in assay [6] (ED50) was put at a dose of 5 mg/kg.
As for `COCC1(F)CCN(c2ccc(N3C[C@H](CNC(C)=O)OC3=O)cc2F)CC1` [Example 10, (S)—N-{3-[4-(4-Fluoro-4-methoxymethylpiperidin-1-yl)-3-fluorophenyl]-2-oxo-oxazolidin-5-ylmethyl}-acetamide], the MIC in assay [1] worked out at 2 µg/mL (≈ 5.03 µM); in assay [2], 1 µg/mL (≈ 2.52 µM); in assay [3] it was 1 µg/mL (≈ 2.52 µM); in assay [4] it was 2 µg/mL (≈ 5.03 µM); in assay [5] it was 2 µg/mL (≈ 5.03 µM). In addition, in assay [6], the median effective dose (ED50) amounted to 5 mg/kg.
On to `CCOCC1(F)CCN(c2ccc(N3C[C@H](CNC(C)=O)OC3=O)cc2F)CC1` [Example 11, (S)—N-{3-[4-(4-Fluoro-4-ethoxymethylpiperidin-1-yl)-3-fluorophenyl]-2-oxo-oxazolidin-5-ylmethyl}-acetamide], for which the MIC was 1 µg/mL (≈ 2.43 µM) in assay [1]; 0.5 µg/mL (≈ 1.22 µM) in assay [2]; 4 µg/mL (≈ 9.72 µM) in assay [3]; 2 µg/mL (≈ 4.86 µM) in assay [4]; 4 µg/mL (≈ 9.72 µM) in assay [5]. In assay [6], this molecule registered an ED50 of 10 mg/kg.
`CC(=O)NC[C@H]1CN(c2ccc(N3CCC(F)(COS(C)(=O)=O)CC3)c(F)c2)C(=O)O1` [Example 12, (S)—N-{3-[4-(4-Fluoro-4-methanesulfonyloxymethylpiperidin-1-yl)-3-fluorophenyl]-2-oxo-oxazolidin-5-ylmethyl}-acetamide]: the MIC worked out at 1 µg/mL (≈ 2.17 µM) in assay [1]; 0.5 µg/mL (≈ 1.08 µM) in assay [2]; 2 µg/mL (≈ 4.33 µM) in assay [3]; 0.25 µg/mL (≈ 0.542 µM) in assay [4]; 0.25 µg/mL (≈ 0.542 µM) in assay [5]. The same molecule returned an ED50 in assay [6] of 2.5 mg/kg.
Take `CC(=O)NC[C@H]1CN(c2ccc(N3CCC(F)(CI)CC3)c(F)c2)C(=O)O1` [Example 15, (S)—N-{3-[4-(4-Fluoro-4-iodomethylpiperidin-1-yl)-3-fluorophenyl]-2-oxo-oxazolidin-5-ylmethyl}-acetamide]: the MIC came to 1 µg/mL (≈ 2.03 µM) in assay [1]; 1 µg/mL (≈ 2.03 µM) in assay [2]; 2 µg/mL (≈ 4.05 µM) in assay [3]; 1 µg/mL (≈ 2.03 µM) in assay [4]; 1 µg/mL (≈ 2.03 µM) in assay [5]. This molecule also displayed an ED50 in assay [6] of 10 mg/kg.
On to `CC(=O)NC[C@H]1CN(c2ccc(N3CCC(F)(F)CC3)c(F)c2)C(=O)O1` [Example 16, (S)—N-{3-[4-(4,4-Difluoropiperidin-1-yl)-3-fluorophenyl]-2-oxo-oxazolidin-5-ylmethyl}-acetamide], for which the MIC in assay [1] came to 2 µg/mL (≈ 5.39 µM); in assay [2], 1 µg/mL (≈ 2.69 µM); in assay [3] it was 2 µg/mL (≈ 5.39 µM); in assay [4] it was 2 µg/mL (≈ 5.39 µM); in assay [5], 2 µg/mL (≈ 5.39 µM). Moreover, the 50% effect level in assay [6] (ED50) was put at a dose of 5 mg/kg.
